Data from publication PMC11527646, “Pharmacological blockade of the mast cell MRGPRX2 receptor supports investigation of its relevance in skin disorders” (Frontiers in Immunology, 2024).

What was measured:
mouse MrgB2 = target: T1, mouse MrgB2 (Mus musculus, UniProt Q3KNA1); assay: Calcium mobilization in BacMam-transduced U2OS cells; assay type: cell-based
T1 construct: expressed in transfected cells; host or cells: U2OS transduced with BacMam virus
Description: (§1) Cell culture reagents were purchased from Thermo Fisher Scientific unless otherwise stated. The LAD2 human mast cell line was in-licensed from National Institutes of Health (NIH) and routinely cultured in StemPro™-34 SFM with nutrient supplement, 1× GlutaMax™, and recombinant human SCF (100 ng/mL). HEK293-MRGPRX2/Gα15 cells were cultured in DMEM containing 10% FBS. The parental U2OS cells were culture in DMEM/F-12 containing 10% FBS. BacMam virus containing human MRGPRX2 gene or animal orthologs [mouse Mrgprb2 (Gene ID: 243979), rat Mrgprb3 (Gene ID: 691194), dog MRGPRX2 (Gene ID: 102125889), cynomolgus monkey MRGPRX2 (Gene ID: 692078), and rhesus monkey MRGPRX2] were used to transduce U2OS cells for transient expression.
(§2) Supplemental Table 1: Compound A and Compound B are human MRGPRX2 selective antagonists. Antagonist and agonist activities of the two compounds were determined in calcium mobilization assays for human MRGPRX2 and its animal orthologs from various species. The activities were measured in […] (Molecular Devices) instrument using U2OS cells transduced with BacMam virus for transient expression of the relevant receptors. Data are presented as mean ± SEM when applicable.
(§3) Compound A and Compound B up to the highest concentration (100 µM) tested. In the antagonist […]
(§4) Compound A and B, respectively. […]
(§5) Taking together, […]

rat MrgB3 = assay: as above; assay type: cell-based
Description: as §1, §2, §3, §4, §5

[1] = system: dog MRGPRX2 (beagle & boxer); assay: as above; assay type: cell-based
Description: as §1, §2, §3, §4, §5

[2] = system: ion channel and enzyme targets; assay: In vitro assays of the human safety prediction panel; settings: data not shown
From the text: Among them, the NK1 receptor with which SP is the canonical and high-affinity endogenous ligand.

MRGPRX2 [3] = target: T2, MRGPRX2 (Homo sapiens, UniProt Q96LB1); assay: Human ex vivo skin microdialysis, Substance P-stimulated histamine release; assay type: cell-based; settings: Substance P 50 μM; three donors
T2 sequence (Q96LB1 1-330): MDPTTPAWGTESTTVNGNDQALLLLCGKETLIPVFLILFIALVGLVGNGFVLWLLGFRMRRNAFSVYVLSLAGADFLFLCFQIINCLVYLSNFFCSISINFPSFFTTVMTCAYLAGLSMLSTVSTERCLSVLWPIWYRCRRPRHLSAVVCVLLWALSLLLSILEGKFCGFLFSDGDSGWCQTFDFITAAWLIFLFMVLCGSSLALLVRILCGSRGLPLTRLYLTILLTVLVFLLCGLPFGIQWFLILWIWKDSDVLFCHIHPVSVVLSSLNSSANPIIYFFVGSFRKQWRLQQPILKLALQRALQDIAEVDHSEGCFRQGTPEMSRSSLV
Description: Microdialysis probes with a 3,000-kDa molecular weight cutoff (EP Medical, Copenhagen, Denmark) were primed for 1 h using a basal perfusate consisting of 0.1% human serum albumin in piperazine-N,N′-bis(2-ethanesulfonic acid) (PIPES) buffer to minimize non-specific adsorption to probe components.
Skin specimens measuring approximately 4 cm × 14 cm were excised from the parent skin sample, and subcutaneous fat was removed mechanically. The skin specimens were fixated on Styrofoam and guide cannulas (21G) were inserted intradermally at least 1 cm apart and ≥ 1 cm from the edge of the skin specimen. Ten probes were introduced into each skin specimen by means of the guide cannulas with an intradermal probe span of 20 mm. Probes were perfused at a flow rate of 3.0 μL/min (used throughout the experiment) for 30 min using basal perfusate in order to remove any unspecific histamine release caused by insertion trauma.
Next, the dialysate was collected for 10 min to assess basal skin histamine levels (“basal”). The probes were then switched to perfusion with a perfusate containing antagonists at different concentrations for 60 min to pre-treat the skin specimens and evaluate potential off-target effects, which could present as histamine release caused by antagonist itself (“pre-treatment”). […] Histamine in the dialysates was quantified as described above. […]

MRGPRX2 [4] = target: T2, MRGPRX2; assay: LAD2 mast cell degranulation (β-hexosaminidase release), MRGPRX2 ligand-mediated; assay type: cell-based; set-up: human mast cells expressing endogenous MRGPRX2; endogenous in cells; […]; settings: for IC50: mean ± SEM; for EC50: agonist mode, no mast cell activator, up to 50 μM tested, read-out: Activation of LAD-2 Cells EC50; for Kb: read-out: pA2 (apparent antagonist affinity, Schild analysis) (converted); for Nature of antagonism: vs Substance P concentration response curves
Description: Two different in vitro human mast cell systems were studied: (a) a human mast cell line, LAD2, established from a patient with mast cell sarcoma; and (b) mast cells freshly isolated from human skin. MRGPRX2 antagonist IC50 values were determined in the LAD2 mast cell degranulation assay using approximately EC80 concentrations for five different MRGPRX2 activating ligands (see Supplementary Figure 1 ).

MRGPRX2 [5] = target: T2, MRGPRX2; assay: Calcium mobilization (FLIPR TETRA) in BacMam-transduced U2OS cells; assay type: cell-based; set-up: expressed in transfected cells; host or cells: U2OS transduced with BacMam virus; Agonist activity: dose or concentration left out as unconfirmed; settings: for Agonist activity: up to the highest concentration tested
Description: as §1, §2, §3, §4

[6] = target: T3, monkey MRGPRX2 (Rhesus macaques) (Macaca mulatta, UniProt Q4QXU5); assay: Calcium mobilization in BacMam-transduced U2OS cells; assay type: cell-based; settings: for Antagonist activity: likely due to receptor desensitization upon activation and not real antagonism
T3 construct: expressed in transfected cells; host or cells: U2OS transduced with BacMam virus
Description: as §1, §2, §3, §4
(§6) MRGPRX2 and Gα15 proteins (Fig. 1). On monkey MRGPRX2 receptors (both Cynomolgus […]
(§7) receptor desensitization upon activation and not real antagonism. […]

[7] = target: T4, monkey MRGPRX2 (Cynomolgus macaques) (Macaca fascicularis, UniProt Q5U9D9); assay: as above; assay type: cell-based; settings: for Antagonist activity: likely due to receptor desensitization upon activation and not real antagonism
T4 construct: expressed in transfected cells; host or cells: U2OS transduced with BacMam virus
T4 sequence (Q5U9D9 1-330): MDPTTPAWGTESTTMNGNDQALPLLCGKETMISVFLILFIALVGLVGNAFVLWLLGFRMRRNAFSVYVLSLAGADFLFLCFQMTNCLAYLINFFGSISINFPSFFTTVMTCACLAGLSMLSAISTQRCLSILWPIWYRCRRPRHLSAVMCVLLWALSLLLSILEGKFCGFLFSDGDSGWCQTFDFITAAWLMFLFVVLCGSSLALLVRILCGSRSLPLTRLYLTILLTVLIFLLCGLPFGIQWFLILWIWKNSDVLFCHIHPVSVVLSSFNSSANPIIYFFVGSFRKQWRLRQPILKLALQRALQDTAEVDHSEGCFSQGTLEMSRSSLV
Description: as §1, §2, §3, §4, §6, §7

A2A receptor (ADORA2A) = target: T5, A2A receptor (ADORA2A) (Homo sapiens, UniProt P29274); assay: GPCR selectivity cellular assay; assay type: cell-based; settings: Agonism; read-out: Agonist Activity (EC50)
T5 construct: expressed in transfected cells
Description: Antagonist and/or agonist activities of the two compounds were determined in cellular assays for 20 human G-protein coupled receptors (GPCR) beside MRGPRX2. Recombinant over-expression systems in mammalian cells were used for all assays listed in this table.
reported as ‘>’ the highest compound concentration allowed in that assay.

[8] = Mast Cell Activator: Compound 48/80 at approx. EC80, read-out: Inhibition of Ligand Mediated LAD-2 Cell Activation and Degranulation IC50

T3 sequence (Q4QXU5 whole entry): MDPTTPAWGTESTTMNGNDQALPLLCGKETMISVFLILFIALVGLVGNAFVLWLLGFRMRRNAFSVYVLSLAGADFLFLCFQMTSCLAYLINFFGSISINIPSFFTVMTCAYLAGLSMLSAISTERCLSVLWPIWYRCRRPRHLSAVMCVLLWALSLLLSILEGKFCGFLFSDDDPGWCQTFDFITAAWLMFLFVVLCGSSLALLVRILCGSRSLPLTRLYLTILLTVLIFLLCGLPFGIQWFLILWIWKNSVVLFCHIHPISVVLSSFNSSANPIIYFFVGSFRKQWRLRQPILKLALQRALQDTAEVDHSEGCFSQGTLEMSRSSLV
T5 sequence (P29274 whole entry): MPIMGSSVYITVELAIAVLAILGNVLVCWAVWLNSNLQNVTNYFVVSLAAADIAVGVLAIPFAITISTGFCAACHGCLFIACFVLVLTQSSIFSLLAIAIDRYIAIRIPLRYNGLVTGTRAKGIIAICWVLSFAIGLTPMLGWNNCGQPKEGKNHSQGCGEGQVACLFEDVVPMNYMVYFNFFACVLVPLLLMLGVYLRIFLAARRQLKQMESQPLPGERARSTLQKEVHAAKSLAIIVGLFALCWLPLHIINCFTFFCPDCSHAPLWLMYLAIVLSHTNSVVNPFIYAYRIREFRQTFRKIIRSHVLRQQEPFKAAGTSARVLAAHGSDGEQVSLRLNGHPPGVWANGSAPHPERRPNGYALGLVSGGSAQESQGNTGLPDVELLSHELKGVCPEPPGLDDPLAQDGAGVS
T1 sequence (Q3KNA1 whole entry): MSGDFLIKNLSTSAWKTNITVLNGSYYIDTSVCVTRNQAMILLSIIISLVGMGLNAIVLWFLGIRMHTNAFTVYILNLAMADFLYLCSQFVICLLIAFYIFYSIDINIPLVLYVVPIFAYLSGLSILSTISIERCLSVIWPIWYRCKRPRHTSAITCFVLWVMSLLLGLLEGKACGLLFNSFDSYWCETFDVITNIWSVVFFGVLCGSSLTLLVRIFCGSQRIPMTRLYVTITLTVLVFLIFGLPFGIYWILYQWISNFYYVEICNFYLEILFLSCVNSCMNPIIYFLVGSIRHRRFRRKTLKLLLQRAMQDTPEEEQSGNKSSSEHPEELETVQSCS

| Compound | Agonist and antagonist activity (mouse MrgB2) | Agonist and antagonist activity (rat MrgB3) | Agonist and antagonist activity [1] | Activity on ion channel and enzyme targets [2] | Concentration achieving complete blockade of Substance P response (histamine release) (MRGPRX2 [3]) | IC50 (MRGPRX2 [4]; [8]) | EC50 (MRGPRX2 [4]) | Kb (MRGPRX2 [4]) | Nature of antagonism (MRGPRX2 [4]) | Agonist activity (MRGPRX2 [5]) | Agonist activity [6] | Antagonist activity [6] | Agonist activity [7] | Antagonist activity [7] | EC50 (A2A receptor (ADORA2A)) | other results |
| --- | --- | --- | --- | --- | --- | --- | --- | --- | --- | --- | --- | --- | --- | --- | --- | --- |
| CC1(C)C(C(=O)Nc2ccccn2)C1(C)C [Compound A] | No agonist nor antagonist activity | No agonist nor antagonist activity | No agonist nor antagonist activity | inactive | 3 µM | 232 ± 26 nM | > 50000 nM | 25.7 nM | partly surmountable | No agonist activity was detected | weak agonist activities | very weak antagonist activities | weak agonist activities | very weak antagonist activities | > 100000 nM | IC50 (MRGPRX2 [4]; Inhibition of Ligand Mediated LAD-2 Cell Activation and Degranulation IC50, Mast Cell Activator: Cortistatin-14 at approx. EC80): 22.8 nM; IC50 (MRGPRX2 [4]; Inhibition of Ligand Mediated LAD-2 Cell Activation and Degranulation IC50, Mast Cell Activator: PACAP-27 at approx. EC80): 61.2 ± 14.3 nM; IC50 (MRGPRX2 [4]; Inhibition of Ligand Mediated LAD-2 Cell Activation and Degranulation IC50, Mast Cell Activator: PAMP-12 at approx. EC80): 63.3 ± 6.2 nM; IC50 (MRGPRX2 [4]; Inhibition of Ligand Mediated LAD-2 Cell Activation and Degranulation IC50, Mast Cell Activator: Substance P (1 μM, approx. EC80)): 32.4 nM; IC50 (MRGPRX2 [5]): 44.6 nM |
| C[C@@H](C(=O)Nc1cnc(Oc2ccc(F)cc2F)cn1)N1CCC(F)(F)[C@@H](c2cc[n+]([O-])cc2)C1 [Compound B] | No agonist nor antagonist activity | No agonist nor antagonist activity | No agonist nor antagonist activity | inactive | 0.03 µM | 4 ± 0.3 nM | > 50000 nM | 0.891 nM | insurmountable | No agonist activity was detected | weak agonist activities | very weak antagonist activities | weak agonist activities | very weak antagonist activities | > 100000 nM | Effect on Substance P maximal response (MRGPRX2 [4]; 7.6 nM antagonist): dampen SP’s maximal response; Effect on degranulation response to highest Substance P concentration (MRGPRX2 [4]; 20 nM antagonist, Substance P 50 μM): abolish the degranulation response; IC50 (MRGPRX2 [4]; Mast Cell Activator: Cortistatin-14 at approx. EC80, read-out: Inhibition of Ligand Mediated LAD-2 Cell Activation and Degranulation IC50): 1 nM; IC50 (MRGPRX2 [4]; Mast Cell Activator: PACAP-27 at approx. EC80, read-out: Inhibition of Ligand Mediated LAD-2 Cell Activation and Degranulation IC50): 1.8 ± 0.1 nM; IC50 (MRGPRX2 [4]; Mast Cell Activator: PAMP-12 at approx. EC80, read-out: Inhibition of Ligand Mediated LAD-2 Cell Activation and Degranulation IC50): 2.6 ± 0.1 nM; IC50 (MRGPRX2 [4]; Mast Cell Activator: Substance P (1 μM, approx. EC80), read-out: Inhibition of Ligand Mediated LAD-2 Cell Activation and Degranulation IC50): 1.8 ± 0.1 nM; IC50 (MRGPRX2 [5]; Cortistatin 14 at approx. EC80, U2OS cells, read-out: Antagonist IC50 against Cortistatin 14): 3.6 nM |
